# Measured values reported in patent publication US6440446B1, “Agent for anti-osteoporosis” (Kabushiki Kaisha Hayashibara Seibutsu Kagaku Kenkyujo, priority 1998, dated 2002).
# Where two headings read alike, the source gives them in different places.
# Assays:
# [1] = system: ovary-extracted mice (oophorectomized osteoporosis); test: Animal experiment: intravenous injection to ovary-extracted mice on low-calcium feed, dry weight of femurs and tibia microscopy; format: in vivo, female ddY mice; conditions: for Bone content compared with the control groups (ovaries extracted, PBS): administered in place of trehalose, data not shown; for Dry weight of extracted tibia / Dry weight of extracted tibia / Body weight: tail vein, 5 ml/kg body weight/shot, once daily, five times a week
# Experimental: An injection containing 10 w/w % trehalose, obtained by the later described Example 7, was diluted with a phosphate buffered saline, which had been filtered with a membrane filter having a pore size of 0.22 μm (hereinafter abbreviated as “PBS”) into a 0.1 w/w % or 1 w/w % trehalose solution. These solutions and the above injection were used for test samples. According to what is done conventionally, female ddY mice, 4-week-old, which had been grouped into 34 heads/group based on their body weight, were anesthetized with sodium pentobarbital, and extracted their ovaries. From the next day, the mice were injected from their tail veins with any one of the test samples at a dose of 5 ml/kg body weight/shot, once every day and five times a week. […] The feed used was a low-calcium feed for ease of making the difference of the bone content.
# In parallel, the following control groups were provided and treated similarly as the group with trehalose: As control 1, a group in which mice were administered with the same amount of PBS as the test samples in place of them; and as control 2, a group in which mice, that were received with a laparotomy pseudo-operation and were not extracted their ovaries, were administered with the same amount of PBS as the test samples in place of them. Some of the mice administered with trehalose using one w/w t trehalose solution, and the mice in controls 1 and 2 as non-trehalose administration groups were extracted their tibias, followed by observing the tibias microscopically. The specimens for microscopic observation were prepared in the usual manner by immobilizing the extracted tibias with formalin solution, washed with water, delimed, split along with the long axis, and treated with protease K to remove bone marrow cells. The specimens of tibias were observed by a relatively-low vacuum electron-microscope under 24 magnifications, and photographed. The data are respectively in FIGS. 4 to 6. In these figures, white parts are the trabecula of cancellous bone. The osteoporosis occurred in mice extracted their ovaries is called oophorectomized osteoporosis and is an excellent model for postmenopausal osteoporosis as a geriatric osteoporosis.
# [2] = system: ovary-extracted mice (oophorectomized osteoporosis); test: Animal experiment: oral administration to ovary-extracted mice on low-calcium feed, dry weight of femurs and tibia microscopy; format: in vivo, female ddY mice
# Source text: According to what is done conventionally, female ddY mice, 4-week-old, which had been grouped into 34 heads/group based on their body weight, were anesthetized with sodium pentobarbital, and extracted their ovaries. From the next day, the mice were orally administered with “TREHAOSE®”, a crystalline trehalose powder containing at least 98% trehalose, d.s.b., commercialized by Hayashibara Shoji, Inc, Okayama, Japan, which had been dissolved in distilled water, at a dose of 0.01, 0.1 or 1 g/kg body weight per shot once every day, five shots in a week. […] The feed used was a low-calcium feed for ease of making the difference of the bone content.
# In parallel, the following control groups were provided and treated similarly as the group with trehalose: As control 1, a group in which mice were administered with the same amount of distilled water as the aqueous trehalose solution in place of the trehalose solution; as control 2, a group in which mice were administered with estradiol, as a therapeutic agent for osteoporosis, dissolved in the same amount of distilled water as the aqueous trehalose solution in place of the trehalose solution, at a dose of one mg/kg body weight/shot, two times a week; and as control 3, a group in which mice, which were received with a laparotomy pseudo-operation and not extracted their ovaries, were administered with the same amount of distilled water as the aqueous trehalose solution in place of the trehalose solution. Some of the mice administered with trehalose at a dose of 0.1 g/kg body weight/shot, and the mice in controls 1 and 3 as groups with no trehalose were extracted their tibias, followed by observing the tibias microscopically. The specimens for microscopic observation were prepared in the usual manner by immobilizing the extracted tibias with formalin solution, washed with water, delimed, split along with the long axis, and treated with protease K to remove bone marrow cells. The specimens of tibias were observed by a relatively-low vacuum electron-microscope under 24 magnifications, and photographed. The data are respectively in FIGS. 1 to 3. In these figures, white parts are the trabecula of cancellous bone. The osteoporosis occurred in the mice extracted their ovaries is called oophorectomized osteoporosis and is an excellent model for postmenopausal osteoporosis as a geriatric osteoporosis.
# osteoclasts [3] = test: Osteoclast count in cultured bone marrow cells from tibias of orally treated mice (tartaric-acid-resistant acid phosphatase staining); format: cell-based, ddY mice; conditions: bone marrow cells from mice given oral 0.1 g/kg body weight/shot; control 1 at least 3-times
# Source text: Similarly as above, the tibias were extracted from some mice, excluding the aforesaid mice which had been extracted their tibias, in the group with trehalose at a dose of 0.1 g/kg body weight/shot, and in the groups 1 and 3. From each tibia, bone marrow cells were collected in the usual manner and suspended in α-MEM medium, supplemented with 10 v/v % fetal calf serum, to give a cell density of 1.5×10^6 cells/ml. The resulting cell suspensions were respectively placed in 24-well plates in a volume of 0.5 ml/well. To each well was added 0.25 ml/well of a cell suspension with a cell density of 4×10^4 cells/ml of osteoblast-like cells suspended in a fresh preparation of the same medium as above. A solution of 4×10^9M 1α, 25-dihydroxy vitamin D3, dissolved in a fresh preparation of the same medium as above, was added to each well in a volume. of 0.25 ml/well. The resulting cell suspension mixtures were incubated in a 5 v/v % CO2 incubator at 37° C. for six days while replacing the media with a fresh preparation of α-MEM medium containing 1×10^9M 1α, 25-dihydroxy vitamin D3 and 10 v/v % fetal calf serum.
# After completion of the culture, the supernatants were removed, and the cells in each well were fixed with formalin, and treated in the usual manner with “NAPHTHOL AS-MS PHOSPHATE” and “RED VIOLET LB SALT”, which are commercialized by Sigma Chemical Company, ST. […]
# ddY mice = conditions: mouse, in vivo
# Experimental: An adequate amount of “TREHAOSE®”, a crystalline trehalose powder having at least 98% of trehalose, d.s.b., commercialized by Hayashibara Shoji, Inc., Okayama, Japan, was dissolved in physiological saline containing 5 w/w % gum arabic, and the solution was sterilized in the usual manner. The sterilized solution was injected intraperitoneally or orally administered using a gastric tube to ddY mice, 20-25 g weight, in a group of 10 heads, followed by the observation for seven days. As a result, independently of the administration routes, no mouse died even administered with the maximum dose, 15 g/kg body weight.
# osteoclasts [4] = test: Osteoclast count in cultured bone marrow cells from tibias of intravenously treated mice (tartaric-acid-resistant acid phosphatase staining); format: cell-based, ddY mice; conditions: bone marrow cells from mice given 10% trehalose solution, about 5 ml/kg body weight/shot; control 1 at least 3-times
# Experimental: Similarly as above, the tibias were extracted from some mice, excluding the aforesaid mice which had been extracted their tibias, in the group with 10% trehalose solution at a dose of about 5 ml/kg body weight/shot, and in the groups 1 and 3. From each tibia, bone marrow cells were collected in the usual manner and suspended in α-MEM medium, supplemented with 10 v/v % fetal calf serum, to give a cell density of 1.5×10^6 cells/ml. The resulting cell suspensions were respectively placed in 24-well plates in a volume of 0.5 ml/well. To each well was added 0.25 ml/well of a cell suspension with a cell density of 4×10^4 cells/ml of osteoblast-like cells suspended in a fresh preparation of the same medium as above. A solution of 4×10^9M 1α, 25-dihydroxy vitamin D3, dissolved in a fresh preparation of the same medium as above, was added to each well in a volume of 0.25 ml/well. The resulting cell suspension mixtures were incubated in a 5 v/v % CO2 incubator at 37° C. for six days while replacing the media with a fresh preparation of α-MEM medium containing 1×10^9M 1α, 25-dihydroxy vitamin D3 and 10 v/v % fetal calf serum.
# After completion of the culture, the supernatants were removed, and the cells in each well were fixed with formalin, and treated in the usual manner with “NAPHTHOL AS-MS PHOSPHATE” and “RED VIOLET LB”, which are commercialized by Sigma Chemical Company, ST. […]
# [5] = oral 0.01 g/kg body weight/shot, once daily, five shots a week, ovary-extracted mice
# [6] = oral 0.1 g/kg body weight/shot, once daily, five shots a week, ovary-extracted mice
# [7] = oral 1 g/kg body weight/shot, once daily, five shots a week, ovary-extracted mice
# [8] = one mg/kg body weight/shot, two times a week (control 2), ovary-extracted mice
smiles,measurement,setting,value
"OC[C@@H](O)[C@@H](O)[C@H](O)[C@@H](O)CO [sorbitol, reference compound]","Bone content compared with the control groups (ovaries extracted, PBS)",[1],no significant difference
"OC[C@H]1O[C@H](O[C@H]2O[C@H](CO)[C@@H](O)[C@H](O)[C@H]2O)[C@H](O)[C@@H](O)[C@@H]1O [Trehalose, trehalose]",Dry weight of extracted tibia,[2]; [5],83.6 ± 7.0 mg
same,Dry weight of extracted tibia / Body weight,[2]; [5],2.643 ± 0.195 mg/g
same,Dry weight of extracted tibia,[2]; [6],85.0 ± 5.2 mg
same,Dry weight of extracted tibia / Body weight,[2]; [6],2.723 ± 0.163 mg/g
same,"Reduction of trabecula in cancellous bone and expansion of the cavity of marrow (tibia, electron microscope x24, FIG. 1)","[2]; oral 0.1 g/kg body weight/shot, ovary-extracted mice",clearly inhibited
same,Dry weight of extracted tibia,[2]; [7],88.4 ± 6.4 mg
same,Dry weight of extracted tibia / Body weight,[2]; [7],2.762 ± 0.172 mg/g
same,Abnormality induced by the administration,"[2]; oral, observation throughout the experiment",No abnormality
same,Dose at which the inhibitory effect on the lowering of the bone content was found,"[2]; oral, ovary-extracted mice",about 0.1 g/kg body weight/shot
same,Number of osteoclasts relative to control 2 (times higher),osteoclasts [3],about 2 times
same,Death at the maximum dose,ddY mice; ip,no mouse died
same,Death at the maximum dose,ddY mice; po,no mouse died
same,Dry weight of extracted tibia,[1]; 0.1 w/w % trehalose solution,84.2 ± 6.9 mg
same,Dry weight of extracted tibia / Body weight,[1]; 0.1 w/w % trehalose solution,2.639 ± 0.213 mg/g
same,Dry weight of extracted tibia,[1]; 1 w/w % trehalose solution,86.9 ± 6.1 mg
same,Dry weight of extracted tibia / Body weight,[1]; 1 w/w % trehalose solution,2.716 ± 0.191 mg/g
same,Dry weight of extracted tibia,[1]; 10 w/w % trehalose injection,89.7 ± 5.5 mg
same,Dry weight of extracted tibia / Body weight,[1]; 10 w/w % trehalose injection,2.777 ± 0.170 mg/g
same,Trehalose concentration at which the inhibitory effect on the lowering of bone content was found,"[1]; intravenous, about 5 ml/kg body weight/shot",~1 w/w %
same,Abnormality induced by the administration,"[1]; intravenous, observation throughout the experiment",No abnormality
same,"Reduction of the trabecula in cancellous bone and expansion of the cavity of marrow (tibia, electron microscope x24, FIG. 4)","[1]; one w/w % trehalose solution, intravenous 5 ml/kg body weight/shot",clearly inhibited
same,Number of osteoclasts relative to control 2 (times higher),osteoclasts [4],about 2 times
"OC[C@@H](O)[C@H](O)[C@@H](O)CO [xylitol, reference compound]","Bone content compared with the control groups (ovaries extracted, PBS)",[1],no significant difference
"OC[C@H]1O[C@H](O[C@H]2[C@H](O)[C@@H](O)C(O)O[C@@H]2CO)[C@H](O)[C@@H](O)[C@@H]1O (mixture of isomers) [maltose, reference compound]","Bone content compared with the control groups (ovaries extracted, PBS)",[1],no significant difference
"OC[C@H]1O[C@@](CO)(O[C@H]2O[C@H](CO)[C@@H](O)[C@H](O)[C@H]2O)[C@@H](O)[C@@H]1O [sucrose, reference compound]","Bone content compared with the control group (ovaries extracted, distilled water)","[2]; administered in place of trehalose, data not shown",no significant difference
"C[C@]12CC[C@@H]3c4ccc(O)cc4CC[C@H]3[C@@H]1CC[C@@H]2O [Estradiol, estradiol, reference compound]",Dry weight of extracted tibia,[2]; [8],119.9 ± 7.5 mg
same,Dry weight of extracted tibia / Body weight,[2]; [8],3.520 ± 0.240 mg/g
